From ChEMBL document CHEMBL3525971 (Drug Metab Dispos, 2011) come the findings set out here.

For orientation: half-life means the time needed for the level to fall by half in the phase considered. One may read the Tmax as the time at which the peak concentration occurs. As usually defined, the Cmax is the highest concentration seen after dosing. Usually AUC(0-t) stands for the area under the concentration-time curve up to a stated or last time point.

The nature of series [1]: Drug excretion in castrated pig urine assessed as unchanged drug level treated with finasteride at 0.8 mg/kg administered as intrajejunal dose measured during 6 hrs sampling by UPLC-tandem mass spectrometry. Format: ADME, organism-based, Sus scrofa. Also on record: dose 0.8 mg/kg. The settings on record: in vivo, other.
A short description of series [2]: Apparent biliary clearance in castrated pig treated with finasteride at 0.8 mg/kg administered as intrajejunal dose by UPLC-tandem mass spectrometry. Also on record: dose 0.8 mg/kg. Type of series: ADME, organism-based, Sus scrofa, Bile. The conditions noted are these: in vivo.
Series [3] in a line: Drug excretion in castrated pig urine assessed as unchanged drug level treated with finasteride at 0.8 mg/kg administered as intrajejunal dose 20 mins after ketoconazole administration measured during 6 hrs sampling by UPLC-tandem mass spectrometry. Type of series: ADME, organism-based, Sus scrofa. Also noted: dose 0.8 mg/kg. The settings on record: in vivo, other.
The nature of series [4]: Biliary excretion in castrated pig assessed as unchanged drug level treated with finasteride at 0.8 mg/kg administered as intrajejunal dose 20 mins after ketoconazole administration measured during 6 hrs sampling by UPLC-tandem mass spectrometry. Format: ADME, organism-based, Sus scrofa, Bile. Also noted: dose 0.8 mg/kg. The settings on record: in vivo, other.
Series [5] in a line: Drug excretion in castrated pig urine assessed as unchanged drug level treated with finasteride at 0.2 mg/kg, iv measured during 6 hrs sampling by UPLC-tandem mass spectrometry. Format: ADME, organism-based, Sus scrofa. Also noted: dose 0.2 mg/kg, route intravenous. The settings on record: in vivo.
Series [6] can be described thus: Apparent biliary clearance in castrated pig treated with finasteride at 0.8 mg/kg administered as intrajejunal dose 20 mins after ketoconazole administration by UPLC-tandem mass spectrometry. Type of series: ADME, organism-based, Sus scrofa, Bile. Also on record: dose 0.8 mg/kg. The settings on record: in vivo.
Series [7] can be described thus: Apparent biliary clearance in castrated pig treated with finasteride at 0.2 mg/kg, iv by UPLC-tandem mass spectrometry. Also noted: dose 0.2 mg/kg, route intravenous. The settings on record: in vivo. Type of series: ADME, organism-based, Sus scrofa, Bile.
Series [8] in a line: Biliary excretion in castrated pig assessed as unchanged drug level treated with finasteride at 0.2 mg/kg, iv measured during 6 hrs sampling by UPLC-tandem mass spectrometry. Format: ADME, organism-based, Sus scrofa, Bile. Also on record: dose 0.2 mg/kg, route intravenous. The conditions noted are these: in vivo.
Series [9] in a line: Biliary excretion in castrated pig assessed as unchanged drug level treated with finasteride at 0.8 mg/kg administered as intrajejunal dose measured during 6 hrs sampling by UPLC-tandem mass spectrometry. Format: ADME, organism-based, Sus scrofa, Bile. Also noted: dose 0.8 mg/kg. The settings on record: in vivo, other.
Series [10] can be described thus: Half life in castrated pig plasma withdrawn from femoral vein at 10 mg/kg dosed via intrajejunal route by HPLC-UV. The conditions noted are these: male.
Series [11] in a line: Tmax in castrated pig plasma withdrawn from femoral vein at 10 mg/kg dosed via intrajejunal route by HPLC-UV. The settings on record: male.
A short description of series [12]: Tmax in castrated pig plasma withdrawn from portal vein at 10 mg/kg dosed via intrajejunal route by HPLC-UV. The conditions noted are these: male.
Series [13] in a line: Cmax in castrated pig plasma withdrawn from portal vein at 10 mg/kg dosed via intrajejunal route by HPLC-UV. The conditions noted are these: male.
Series [14] can be described thus: Half life in castrated pig plasma withdrawn from portal vein at 10 mg/kg dosed via intrajejunal route by HPLC-UV. The conditions noted are these: male.
Series [15] can be described thus: Cmax in castrated pig plasma withdrawn from femoral vein at 10 mg/kg dosed via intrajejunal route by HPLC-UV. The settings on record: male.
A short description of series [16]: AUC (0 to 6 hrs) in castrated pig plasma withdrawn from femoral vein dosed via intrajejunal route by UPLC-tandem mass spectrometry. The conditions noted are these: male.
Series [17] is described as follows: AUC (0 to 6 hrs) in castrated pig plasma withdrawn from portal vein dosed via intrajejunal route by UPLC-tandem mass spectrometry. The conditions noted are these: male.

Take `CC(C)(NC(=O)[C@H]1CC[C@H]2[C@@H]3CC[C@H]4NC(=O)C=C[C@]4(C)[C@H]3CC[C@]12C)C(=O)O`: the Ae is 8.5 µmol in series [1]; 3.4 µmol in series [3]; 0.7 µmol in [4]; 1.2 µmol in series [5]; 0.6 µmol in series [8]; 1.2 µmol in series [9]. Also, the “CL(app)” value in [2] came out at 2.4 mL/min/kg; in series [6], 1.2 mL/min/kg; in series [7] it was 3.6 mL/min/kg.
On to `CC(=O)N1CCN(c2ccc(OCC3COC(Cn4ccnc4)(c4ccc(Cl)cc4Cl)O3)cc2)CC1` (configuration not stated) [KETOCONAZOLE], for which the half-life in series [10] is 4.1 h; in series [14] it was 3.1 h. Besides, the results for the Tmax in series [11] and in series [12] were 1.8 h and 0.7 h, respectively. Besides, the Cmax was 9 µM in series [13] and 3 µM in series [15]. Moreover, the AUC(0-t) at 6 h in series [16] is 13 µM·h; in [17], 22 µM·h.
